Assay results taken from patent US20210308089A1, “METHODS OF TREATING AND/OR PREVENTING VIRAL INFECTIONS AND/OR DISEASES CAUSED BY VIRUSES IN A SUBJECT IN NEED THEREOF” (priority 2020, published 2021).

Test system: patients of the REDUCE-IT and earlier EPA placebo-controlled trials
Assay type: in vivo, human
Details: R-I

Q: Which results are given for `CC/C=C\C/C=C\C/C=C\C/C=C\C/C=C\CCCC(=O)OCC` [icosapent ethyl, eicosapentaenoic acid ethyl ester]?
A: AR: ALP high (Day 120): 3.2%; AR: ALP high (Day 360): 3.4%; AR: ALP high (Day 720): 4.4%; AR: ALP high (Day 1080): 4.4%; AR: ALP high (Day 1440): 4.2%; AR: ALP high (Day 1800): 4.3%; AR: ALP shift: normal to high (Day 120): 1.5%; AR: ALP shift: normal to high (Day 360): 1.8%; AR: ALP shift: normal to high (Day 720): 3.0%; AR: ALP shift: normal to high (Day 1080): 3.3%; AR: ALP shift: normal to high (Day 1440): 3.2%; AR: ALP shift: normal to high (Day 1800): 3.3%; AR: ALP shift: normal to low (Day 120): 0.3%; AR: ALP shift: normal to low (Day 360): 0.3%; AR: ALP shift: normal to low (Day 720): 0.4%; AR: ALP shift: normal to low (Day 1080): 0.4%; AR: ALP shift: normal to low (Day 1440): 0.6%; AR: Albumin high (Day 120): 1.0%; AR: Albumin high (Day 360): 1.2%; AR: Albumin high (Day 720): 2.1%; AR: Albumin high (Day 1080): 1.9%; AR: Albumin high (Day 1440): 1.8%; AR: Albumin shift: normal to high (Day 120): 0.8%; AR: Albumin shift: normal to high (Day 360): 0.9%; AR: Albumin shift: normal to high (Day 720): 1.9%; AR: Albumin shift: normal to high (Day 1080): 1.8%; AR: Albumin shift: normal to high (Day 1440): 1.6%; AR: Bilirubin >1x ULN to 2x ULN: 3.3%; AR: Bilirubin >2x ULN to 3x ULN: 0.2%; AR: Bilirubin high (Day 120): 1.9%; AR: Bilirubin high (Day 360): 1.9%; AR: Bilirubin high (Day 720): 2.0%; AR: Bilirubin high (Day 1080): 2.4%; AR: Bilirubin high (Day 1440): 2.3%; AR: Bilirubin high (Day 1800): 2.6%; AR: Bilirubin shift: normal to high (Day 120): 1.0%; AR: Bilirubin shift: normal to high (Day 360): 0.9%; AR: Bilirubin shift: normal to high (Day 720): 1.0%; AR: Bilirubin shift: normal to high (Day 1080): 1.4%; AR: Bilirubin shift: normal to high (Day 1440): 1.3%; AR: Bilirubin shift: normal to high (Day 1800): 1.4%; AR: Calcium high (Day 120): 1.0%; AR: Calcium high (Day 360): 1.1%; AR: Calcium high (Day 720): 1.2%; AR: Calcium low (Day 120): 0.2%; AR: Calcium low (Day 360): 0.2%; AR: Calcium low (Day 720): 0.2%; AR: DBP High (≥100 mmHg): 5.3%; AR: DBP High and Rose ≥10 mmHg: 4.3%; AR: DBP Low (≤50 mmHG): 1.0%; AR: DBP Low and dropped ≥10 mmHg: 0.9%; AR: DBP dropped ≥10 mmHG: 37.8%; AR: DBP rose ≥10 mmHg: 36.5%; AR: High platelets (Day 720): 1.5%; AR: Low platelets (Day 360): 2.0%; AR: Low platelets (Day 720): 3.1%; AR: Low platelets (Day 1080): 3.2%; AR: Platelet count: PCS Low <100 × 10^3/uL: 0.8%; AR: SBP High (≥160 mmHg): 18.8%; AR: SBP High and rose ≥20 mmHg: 11.9%; AR: SBP Low (≤90 mmHg): 0.8%; AR: SBP dropped ≥20 mmHg: 24.0%; AR: SBP low and dropped ≥20 mmHg: 0.6%; AR: SBP rose ≥20 mmHg: 29.6%; AR: Urate high (Day 120): 13.4%; AR: Urate high (Day 360): 13.0%; AR: Urate high (Day 720): 12.4%; AR: Urate high (Day 1080): 12.7%; AR: Urate high (Day 1440): 12.7%; AR: Urate high (Day 1800): 12.1%; AR: Urate shift: normal to high (Day 120): 5.5%; AR: Urate shift: normal to high (Day 360): 6.0%; AR: Urate shift: normal to high (Day 720): 6.2%; AR: Urate shift: normal to high (Day 1080): 7.1%; AR: Urate shift: normal to high (Day 1440): 8.2%; AR: Urate shift: normal to high (Day 1800): 8.2%; AR: Urate shift: normal to low (Day 120): 0.1%; AR: Urate shift: normal to low (Day 360): 0.2%; AR: Urate shift: normal to low (Day 720): 0.2%; AR: Urate shift: normal to low (Day 1080): 0.2%; AR: Urate shift: normal to low (Day 1440): 0.3%; AR: Uric acid PCS High >7.5 mg/dL (Women): 5.0%; AR: Uric acid PCS High >8.0 mg/dL (Men): 15.3%; AR: Uric acid PCS Low <1.9 mg/dL (Women): 0.0%; AR: Uric acid PCS Low <2.5 mg/dL (Men): 0.4%; ARR: ALP high (Day 120): −1.5%; ARR: ALP high (Day 360): −2.0%; ARR: ALP high (Day 720): −2.4%; ARR: ALP high (Day 1080): −3.0%; ARR: ALP high (Day 1440): −2.9%; ARR: ALP high (Day 1800): −2.7%; ARR: ALP shift: normal to high (Day 120): −1.3%; ARR: ALP shift: normal to high (Day 360): −1.8%; ARR: ALP shift: normal to high (Day 720): −2.6%; ARR: ALP shift: normal to high (Day 1080): −3.0%; ARR: ALP shift: normal to high (Day 1440): −2.7%; ARR: ALP shift: normal to high (Day 1800): −2.6%; ARR: ALP shift: normal to low (Day 120): 0.4%; ARR: ALP shift: normal to low (Day 360): 0.3%; ARR: ALP shift: normal to low (Day 720): 0.4%; ARR: ALP shift: normal to low (Day 1080): 0.3%; ARR: ALP shift: normal to low (Day 1440): 0.1%; ARR: Albumin high (Day 120): 0.8%; ARR: Albumin high (Day 360): 0.7%; ARR: Albumin high (Day 720): 0.6%; ARR: Albumin high (Day 1080): 0.7%; ARR: Albumin high (Day 1440): 0.8%; ARR: Albumin shift: normal to high (Day 120): 0.8%; ARR: Albumin shift: normal to high (Day 720): 0.7%; ARR: Albumin shift: normal to high (Day 1080): 0.4%; ARR: Albumin shift: normal to high (Day 1440): 0.7%; ARR: Bilirubin >1x ULN to 2x ULN: 3.5%; ARR: Bilirubin >2x ULN to 3x ULN: 0.2%; ARR: Bilirubin high (Day 120): 2.4%; ARR: Bilirubin high (Day 360): 2.0%; ARR: Bilirubin high (Day 720): 2.6%; ARR: Bilirubin high (Day 1080): 2.0%; ARR: Bilirubin high (Day 1440): 2.5%; ARR: Bilirubin high (Day 1800): 2.3%; ARR: Bilirubin shift: normal to high (Day 120): 1.3%; ARR: Bilirubin shift: normal to high (Day 360): 1.3%; ARR: Bilirubin shift: normal to high (Day 720): 1.3%; ARR: Bilirubin shift: normal to high (Day 1080): 1.0%; ARR: Bilirubin shift: normal to high (Day 1440): 1.8%; ARR: Bilirubin shift: normal to high (Day 1800): 1.2%; ARR: Calcium high (Day 120): −0.2%; ARR: Calcium high (Day 360): −0.1%; ARR: Calcium high (Day 720): −0.3%; ARR: Calcium low (Day 120): 0.1%; ARR: Calcium low (Day 360): 0.2%; ARR: Calcium low (Day 720): 0.2%; ARR: DBP High (≥100 mmHg): 0.6%; ARR: DBP High and Rose ≥10 mmHg: 0.4%; ARR: DBP Low (≤50 mmHG): 0.1%; ARR: DBP Low and dropped ≥10 mmHg: 0.0%; ARR: DBP dropped ≥10 mmHG: 3.2%; ARR: DBP rose ≥10 mmHg: −0.6%; ARR: High platelets (Day 720): 0.6%; ARR: Low platelets (Day 360): −1.8%; ARR: Low platelets (Day 720): −0.7%; ARR: Low platelets (Day 1080): −1.2%
